{
  "source": "patent US8906848B2",
  "about": "“Aureobasidin derivatives and methods of synthesis” (priority 2011, dated 2014)",
  "key": {"[1]": {"test_system": "Candida species, including C. albicans", "conditions": "virtually all Candida species; cited from earlier work"}, "[2]": {"test_system": "Candida albicans SC5413", "assay": "Candidiasis model in immunosuppressed mice, mortality", "type": "in vivo", "experimental": "Referring to FIG. 6, Mice, immunosuppressed with cyclophosphamide, were inoculated with 8 log 10 CFU Candida albicans SC5413 and dosed (following inoculation) with 3-pyridyl-mPhe^4-AbA (or a control antibiotic) orally, BID, for four consecutive days. Efficacy was determined by enumerating mortality."}, "[3]": {"test_system": "Cryptococcus species, including C. neoformans", "conditions": "most Cryptococcus species; cited from earlier work"}, "[4]": {"assay": "Pharmacokinetic study in mice, oral gavage, plasma by HPLC-MS", "type": "in vivo", "conditions": "single 200 mg/kg oral gavage", "experimental": "Referring to FIG. 5, mice were administered a single 200 mg/kg bolus dose of 3-pyridyl-mPhe^4-AbA (diamonds) or AbA (squares), by oral gavage. Blood was collected a timed intervals after administration of the drug and analyzed for compound content by HPLC-MS."}, "[5]": {"conditions": "animals and humans; cited from earlier work"}, "[6]": {"test_system": "C. albicans", "assay": "MIC, broth dilution CLSI M38-A2 with YPD medium (Table 2)", "type": "cell-based", "experimental": "(§1) The activities of several exemplary compounds of the present invention were assayed according to the CLSI standard M38-A2 titled “Reference Method for Broth Dilution Antifungal Susceptibility Testing of Filamentous Fungi”. However, the RPMI-1640 broth is substituted for a YPD medium formulated according to the following steps: […]\n(§2) 1. Dissolve 10 g of BactoYeast extract in 500 ml water\n(§3) 2. Dissolve 20 g of BactoPeptone in the above solution\n(§4) 3. Dissolve 20 g Dextrose in the above solution* *Ordinary table sugar (sucrose) substituted for dextrose routinely.\n(§5) 4. q.s. to 1000 ml with water"}, "[7]": {"test_system": "Aspergilli, A. fumigatus", "conditions": "most Aspergilli, most notably A. fumigatus; cited from earlier work"}, "[8]": {"test_system": "Trychophyton mentagrophytes 5278 (ATCC MYA-4439)", "assay": "MIC, antifungal spectrum (Table 3)", "type": "cell-based", "conditions": "at 96 hrs", "experimental": "as §1, §2, §3, §4, §5"}, "[9]": {"test_system": "Fusarium oxysporum 0893 (ATCC48112)", "assay": "MIC, antifungal spectrum (Table 3)", "type": "cell-based", "conditions": "at 96 hr", "experimental": "as §1, §2, §3, §4, §5"}, "[10]": {"test_system": "Sporothrix schenkii 892 (ATCC14284)", "assay": "MIC, antifungal spectrum (Table 3)", "type": "cell-based", "conditions": "at 96 hrs", "experimental": "as §1, §2, §3, §4, §5"}, "[11]": {"test_system": "Trychophyton rubrum 5279 (ATCC MYA-4438)", "assay": "MIC, antifungal spectrum (Table 3)", "type": "cell-based", "conditions": "at 72 hrs", "experimental": "as §1, §2, §3, §4, §5"}, "[12]": {"test_system": "A. fumigatus", "assay": "MIC, broth dilution CLSI M38-A2 with YPD medium (Table 2)", "type": "cell-based", "conditions": "compound purity ~85%", "experimental": "as §1, §2, §3, §4, §5"}, "[13]": {"conditions": "YPD medium, compound purity ~85%"}},
  "note": "Like-named read-outs stand apart in the source and are kept apart here. Starred links: 1 amine or outer side, 2 acyl side, 3 side chain; linkers in the order of their positions; H or OH if unused. Non-standard residues stand in square brackets, D forms with d. Residues, ends and D or L forms follow the SMILES beside them. NMePhe(3-(3-pyridyl)) = CN[C@@H](Cc1cccc(-c2cccnc2)c1)C(=O)O; NMePhe(3-Ph) = CN[C@@H](Cc1cccc(-c2ccccc2)c1)C(=O)O; X2 = CN([C@@H](Cc1cccc(B(O)O)c1)C(=O)[*:2])[*:1]; NMePhe(3-Br) = CN[C@@H](Cc1cccc(Br)c1)C(=O)O; Phe(3-Br) = N[C@@H](Cc1cccc(Br)c1)C(=O)O; X1 = CC[C@@H](C)[C@@H](O[*:1])C(=O)[*:2]; NMeVal(β-OH) = CN[C@H](C(=O)O)C(C)(C)O; aIle = CC[C@@H](C)[C@H](N)C(=O)O; NMeV = CN[C@H](C(=O)O)C(C)C",
  "data": [
    {"compound": "CCC(C)[C@@H]1NC(=O)[C@@H]2CCCN2C(=O)[C@H](Cc2ccccc2)N(C)C(=O)[C@H](Cc2ccccc2)NC(=O)[C@H](C(C)C)N(C)C(=O)[C@@H](C(C)CC)OC(=O)C(C(C)(C)O)N(C)C(=O)[C@H](CC(C)C)NC(=O)[C@H](C(C)C)N(C)C1=O", "note": "(stereo in doubt) [AbA (native), Aureobasidin A]", "values": [
      {"measurement": "efficacy against Candida species", "setting": "[1]", "result": "very efficacious"},
      {"measurement": "ED50", "setting": "[2]; cyclophosphamide-immunosuppressed mice, oral, BID, four consecutive days, mortality", "result": "about 25 mg/kg"},
      {"measurement": "efficacy against Cryptococcus species", "setting": "[3]", "result": "efficacious"},
      {"measurement": "plasma concentration trend at the end of the 12 hour experiment", "setting": "[4]", "result": "decreasing"},
      {"measurement": "tolerability", "setting": "[5]", "result": "very well tolerated"},
      {"measurement": "MIC for C. albicans", "setting": "[6]; [13]", "result": "<0.05", "unit": "µg/mL"},
      {"measurement": "activity towards Aspergilli", "setting": "[7]", "result": "little activity"}
    ]},
    {"compound": "CC[C@@H](C)[C@@H]1NC(=O)[C@@H]2CCCN2C(=O)[C@H](Cc2cccc(-c3cccnc3)c2)N(C)C(=O)[C@H](Cc2ccccc2)NC(=O)[C@H](C(C)C)N(C)C(=O)[C@@H]([C@H](C)CC)OC(=O)[C@H](C(C)(C)O)N(C)C(=O)[C@H](CC(C)C)NC(=O)[C@H](C(C)C)N(C)C1=O", "note": "[3-pyridyl-mPhe^4-AbA] (cyclo([X1][NMeV]F[NMePhe(3-(3-pyridyl))]P[aIle][NMeV]L[NMeVal(β-OH)]))", "values": [
      {"measurement": "MIC", "setting": "[8]", "result": 0.5, "unit": "at 96 hrs μg/ml"},
      {"measurement": "MIC", "setting": "[9]", "result": ">64", "unit": "at 96 hr μg/ml"},
      {"measurement": "MIC", "setting": "[10]", "result": ">64", "unit": "at 96 hrs μg/ml"},
      {"measurement": "MIC", "setting": "[11]", "result": 2, "unit": "at 72 hrs μg/ml"},
      {"measurement": "ED50 of native AbA relative to that of 3-pyridyl-mPhe^4-AbA", "setting": "[2]; Candidiasis model, mice, oral BID four days", "result": "almost four times higher"},
      {"measurement": "bioavailability and/or clearance as compared to the native drug", "setting": "[4]", "result": "enhanced bioavailability and/or a slower clearance"},
      {"measurement": "plasma concentration trend at the end of the 12 hour experiment", "setting": "[4]", "result": "still be increasing"},
      {"measurement": "plasma concentrations compared with the same dose of native AbA", "setting": "[4]; same vehicle", "result": "significantly higher plasma concentrations"},
      {"measurement": "MIC for C. albicans", "setting": "[6]", "result": "<0.05", "unit": "µg/mL"}
    ]},
    {"compound": "CC[C@@H](C)[C@@H]1NC(=O)[C@@H]2CCCN2C(=O)[C@H](Cc2cccc(B(O)O)c2)N(C)C(=O)[C@H](Cc2ccccc2)NC(=O)[C@H](C(C)C)N(C)C(=O)[C@@H]([C@H](C)CC)OC(=O)[C@H](C(C)(C)O)N(C)C(=O)[C@H](CC(C)C)NC(=O)[C@H](C(C)C)N(C)C1=O", "note": "[B(OH)2-mPhe^4-AbA] (cyclo([X1][NMeV]F[X2]P[aIle][NMeV]L[NMeVal(β-OH)]))", "values": [
      {"measurement": "MIC for C. albicans", "setting": "[6]", "result": "<0.05", "unit": "µg/mL"}
    ]},
    {"compound": "CC[C@@H](C)[C@@H]1NC(=O)[C@@H]2CCCN2C(=O)[C@H](Cc2cccc(Br)c2)N(C)C(=O)[C@H](Cc2cccc(Br)c2)NC(=O)[C@H](C(C)C)N(C)C(=O)[C@@H]([C@H](C)CC)OC(=O)[C@H](C(C)(C)O)N(C)C(=O)[C@H](CC(C)C)NC(=O)[C@H](C(C)C)N(C)C1=O", "note": "[Br-Phe^3-Br-mPhe^4-AbA] (cyclo([X1][NMeV][Phe(3-Br)][NMePhe(3-Br)]P[aIle][NMeV]L[NMeVal(β-OH)]))", "values": [
      {"measurement": "MIC for C. albicans", "setting": "[6]", "result": 5, "unit": "µg/mL"}
    ]},
    {"compound": "CC[C@@H](C)[C@@H]1NC(=O)[C@@H]2CCCN2C(=O)[C@H](Cc2cccc(-c3ccccc3)c2)N(C)C(=O)[C@H](Cc2ccccc2)NC(=O)[C@H](C(C)C)N(C)C(=O)[C@@H]([C@H](C)CC)OC(=O)[C@H](C(C)(C)O)N(C)C(=O)[C@H](CC(C)C)NC(=O)[C@H](C(C)C)N(C)C1=O", "note": "[Phenyl-mPhe^4-AbA] (cyclo([X1][NMeV]F[NMePhe(3-Ph)]P[aIle][NMeV]L[NMeVal(β-OH)]))", "values": [
      {"measurement": "MIC for C. albicans", "setting": "[6]", "result": "<0.05", "unit": "µg/mL"}
    ]},
    {"compound": "Boronate-mPhe^4-AbA", "values": [
      {"measurement": "MIC for C. albicans", "setting": "[6]; [13]", "result": "<0.5", "unit": "µg/mL"},
      {"measurement": "MIC for A. fumigatus", "setting": "[12]", "result": 10, "unit": "µg/mL"}
    ]},
    {"compound": "Br-mPhe^4-AbA", "values": [
      {"measurement": "MIC for C. albicans", "setting": "[6]; [13]", "result": 0.031, "unit": "µg/mL"},
      {"measurement": "MIC for A. fumigatus", "setting": "[12]", "result": 2.5, "unit": "µg/mL"}
    ]},
    {"compound": "I-mPhe^4-AbA", "values": [
      {"measurement": "MIC for C. albicans", "setting": "[6]; [13]", "result": 2.5, "unit": "µg/mL"},
      {"measurement": "MIC for A. fumigatus", "setting": "[12]", "result": ">5", "unit": "µg/mL"}
    ]},
    {"compound": "MeO-φ-mPhe^4-AbA", "values": [
      {"measurement": "MIC for C. albicans", "setting": "[6]; [13]", "result": 5, "unit": "µg/mL"}
    ]}
  ]
}
